Measurements from patent US20230085307A1, “PYRIDAZINONE COMPOUND AND HERBICIDE” (NISSAN CHEMICAL CORPORATION, priority 2019, published 2023).

Experiments:
Japanese bulrush [1] = assay: Test Example 1: herbicidal activity, application before weed generation under submerged conditions (Table 16, symbol B); format: in vivo, Japanese bulrush (Schoenoplectus juncoides); conditions: amount of applied herbicide 320 g/ha
In short: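 Emulsion formulation, water-diluted to set dose, was put onto the flooded surface (4 cm depth, alluvial soil) the same day weeds were sown and 2.5-leaf rice transplanted. After 3 weeks at 25-30 °C under glass, each species was rated 0 (≤5% kill) to 5 (≥90% kill).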

wild oat [2] = assay: Test Example 4: herbicidal effect by soil treatment (Table 19, symbol I); format: in vivo, wild oat (Avena fatua); conditions: amount of applied herbicide 320 g/ha
In short: (§1)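 In this soil treatment, the formulated compound reached the seeds only through the soil: seeds were buried about 1.5 cm deep in sterilized diluvial soil, then the diluted emulsion was sprayed over the surface. After three weeks at 25° C. to 30° C. in a greenhouse, effects were graded on criteria from an earlier test.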

rice flat sedge = assay: Test Example 3: herbicidal effect by foliage application, Wagner pot (Table 18, symbol E); format: in vivo, rice flat sedge (Cyperus iria); conditions: 320 g/ha
In short: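 Plants were sown in alluvial soil held under 0.1–0.5 cm standing water and grown 14 days in a greenhouse at 25–30 °C. An emulsifiable formulation, water-diluted to the set dose, was then sprayed onto the foliage, and effects were scored three weeks later using previously defined criteria.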

green foxtail = assay: Test Example 4: herbicidal effect by soil treatment (Table 19, symbol G); format: in vivo, green foxtail (Setaria viridis); conditions: amount of applied herbicide 320 g/ha
In short: as §1

redroot pigweed [3] = assay: Test Example 4: herbicidal effect by soil treatment (Table 19, symbol N); format: in vivo, redroot pigweed (Amaranthus retroflexus); conditions: amount of applied herbicide 320 g/ha
In short: as §1

late watergrass = assay: Test Example 2: herbicidal activity, application during weed generation under submerged conditions (Table 17, symbol A); format: in vivo, late watergrass (Echinochloa oryzicola); conditions: AAH 320 g/ha; application during weed generation, submerged conditions
In short: (§2)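 Alluvial soil in Wagner pots was flooded to 4 cm depth and sown with the three weeds together; pots were kept in a greenhouse at 25° C. to 30° C. At the one to two leaf stage, an emulsion formulation diluted in water to a set rate went onto the water surface; scored three weeks later.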

blackgrass [4] = assay: Test Example 4: herbicidal effect by soil treatment (Table 19, symbol J); format: in vivo, blackgrass (Alopecurus myosuroides); conditions: amount of applied herbicide 320 g/ha
In short: as §1

chickweed [5] = assay: Test Example 5: herbicidal effect by foliage application, plastic box (Table 20, symbol P); format: in vivo, common chickweed (Stellaria media); conditions: foliage application after 14-day growth, evaluated three weeks after application; for herbicidal effect on P: chickweed (evaluation grade 0-5): 320 g/ha
In short: (§3)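 Plants were sown into sterilized diluvial soil under about 1.5 cm cover and kept in a greenhouse at 25° C. to 30° C. Fourteen days on, foliage received an even spray of the diluted emulsion. Herbicidal or crop effect was judged three weeks afterwards.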

redroot pigweed [6] = assay: Test Example 5: herbicidal effect by foliage application, plastic box (Table 20, symbol N); format: in vivo, redroot pigweed (Amaranthus retroflexus); conditions: foliage application after 14-day growth, evaluated three weeks after application; for herbicidal effect on N: redroot pigweed (evaluation grade 0-5): 320 g/ha
In short: as §3

chickweed [7] = assay: Test Example 4: herbicidal effect by soil treatment (Table 19, symbol P); format: in vivo, common chickweed (Stellaria media); conditions: amount of applied herbicide 320 g/ha
In short: as §1

barnyard grass = assay: Test Example 5: herbicidal effect by foliage application, plastic box (Table 20, symbol H); format: in vivo, barnyard grass (Echinochloa crus-galli); conditions: foliage application after 14-day growth, evaluated three weeks after application; for herbicidal effect on H: barnyard grass (evaluation grade 0-5): 320 g/ha
In short: as §3

velvetleaf = assay: Test Example 4: herbicidal effect by soil treatment (Table 19, symbol M); format: in vivo, velvetleaf (Abutilon theophrasti); conditions: amount of applied herbicide 320 g/ha
In short: as §1

Japanese bulrush [8] = assay: Test Example 2: herbicidal activity, application during weed generation under submerged conditions (Table 17, symbol B); format: in vivo, Japanese bulrush (Schoenoplectus juncoides); conditions: AAH 320 g/ha; application during weed generation, submerged conditions
In short: as §2

blackgrass [9] = assay: Test Example 5: herbicidal effect by foliage application, plastic box (Table 20, symbol J); format: in vivo, blackgrass (Alopecurus myosuroides); conditions: foliage application after 14-day growth, evaluated three weeks after application; for herbicidal effect on J: blackgrass (evaluation grade 0-5): 320 g/ha
In short: as §3

oval-leafed pondweed = assay: Test Example 2: herbicidal activity, application during weed generation under submerged conditions (Table 17, symbol C); format: in vivo, oval-leafed pondweed (Monochoria vaginalis); conditions: AAH 320 g/ha; application during weed generation, submerged conditions
In short: as §2

southern crabgrass = assay: Test Example 4: herbicidal effect by soil treatment (Table 19, symbol F); format: in vivo, southern crabgrass (Digitaria ciliaris); conditions: amount of applied herbicide 320 g/ha
In short: as §1

wild oat [10] = assay: Test Example 5: herbicidal effect by foliage application, plastic box (Table 20, symbol I); format: in vivo, wild oat (Avena fatua); conditions: foliage application after 14-day growth, evaluated three weeks after application; for herbicidal effect on I: wild oat (evaluation grade 0-5): 320 g/ha
In short: as §3

[11] = amount of applied herbicide 320 g/ha

| Compound | Herbicidal effect, B: Japanese bulrush (Japanese bulrush [1]) | Herbicidal effect by soil treatment, I: wild oat (wild oat [2]) | herbicidal effect on rice flat sedge (E) (rice flat sedge) | Herbicidal effect by soil treatment, G: green foxtail (green foxtail) | Herbicidal effect by soil treatment, N: redroot pigweed (redroot pigweed [3]) | herbicidal effect rating, A: late watergrass (late watergrass) | Herbicidal effect by soil treatment, J: blackgrass (blackgrass [4]) | herbicidal effect on P: chickweed (evaluation grade 0-5) (chickweed [5]) | herbicidal effect on N: redroot pigweed (evaluation grade 0-5) (redroot pigweed [6]) | Herbicidal effect by soil treatment, P: chickweed (chickweed [7]) | herbicidal effect on H: barnyard grass (evaluation grade 0-5) (barnyard grass) | Herbicidal effect by soil treatment, M: velvetleaf (velvetleaf) | herbicidal effect rating, B: Japanese bulrush (Japanese bulrush [8]) | herbicidal effect on J: blackgrass (evaluation grade 0-5) (blackgrass [9]) | herbicidal effect rating, C: oval-leafed pondweed (oval-leafed pondweed) | Herbicidal effect by soil treatment, F: southern crabgrass (southern crabgrass) | herbicidal effect on I: wild oat (evaluation grade 0-5) (wild oat [10]) | other results |
| --- | --- | --- | --- | --- | --- | --- | --- | --- | --- | --- | --- | --- | --- | --- | --- | --- | --- | --- |
| CCCC(=O)Oc1c(C)nn(C)c(=O)c1-c1c(-c2ccc(OC)cc2)sc2c(F)cccc12 [4-006] | 3 (Herbicidal rate of 40% or more and less than 70%) | 0 (Herbicidal rate of 5% or less (almost no effect)) | 5 (Herbicidal rate of 90% or more (almost completely withered)) | 4 (Herbicidal rate of 70% or more and less than 90%) | 4 (Herbicidal rate of 70% or more and less than 90%) | 3 (Herbicidal rate of 40% or more and less than 70%) | 0 (Herbicidal rate of 5% or less (almost no effect)) | 5 (Herbicidal rate of 90% or more (almost completely withered)) | 5 (Herbicidal rate of 90% or more (almost completely withered)) | 0 (Herbicidal rate of 5% or less (almost no effect)) | 4 (Herbicidal rate of 70% or more and less than 90%) | 1 (Herbicidal rate of 5% or more and less than 20%) | 3 (Herbicidal rate of 40% or more and less than 70%) | 1 (Herbicidal rate of 5% or more and less than 20%) | 2 (Herbicidal rate of 20% or more and less than 40%) | 0 (Herbicidal rate of 5% or less (almost no effect)) | 0 (Herbicidal rate of 5% or less (almost no effect)) | – |
| CCCOc1ccc(-c2sc3c(Cl)cccc3c2-c2c(OC(=O)CCC)c(C)nn(C)c2=O)cc1 [4-028] | 3 (Herbicidal rate of 40% or more and less than 70%) | 0 (Herbicidal rate of 5% or less (almost no effect)) | 5 (Herbicidal rate of 90% or more (almost completely withered)) | 0 (Herbicidal rate of 5% or less (almost no effect)) | 4 (Herbicidal rate of 70% or more and less than 90%) | 3 (Herbicidal rate of 40% or more and less than 70%) | 0 (Herbicidal rate of 5% or less (almost no effect)) | 5 (Herbicidal rate of 90% or more (almost completely withered)) | 5 (Herbicidal rate of 90% or more (almost completely withered)) | 0 (Herbicidal rate of 5% or less (almost no effect)) | 5 (Herbicidal rate of 90% or more (almost completely withered)) | 1 (Herbicidal rate of 5% or more and less than 20%) | 3 (Herbicidal rate of 40% or more and less than 70%) | 0 (Herbicidal rate of 5% or less (almost no effect)) | 0 (Herbicidal rate of 5% or less (almost no effect)) | 0 (Herbicidal rate of 5% or less (almost no effect)) | 0 (Herbicidal rate of 5% or less (almost no effect)) | – |
| CCCC(=O)Oc1c(C)nn(C)c(=O)c1-c1c(-c2ccc(SC)cc2)sc2c(F)cccc12 [4-051] | 3 (Herbicidal rate of 40% or more and less than 70%) | 0 (Herbicidal rate of 5% or less (almost no effect)) | 3 (Herbicidal rate of 40% or more and less than 70%) | 1 (Herbicidal rate of 5% or more and less than 20%) | 5 (Herbicidal rate of 90% or more (almost completely withered)) | 3 (Herbicidal rate of 40% or more and less than 70%) | 0 (Herbicidal rate of 5% or less (almost no effect)) | 5 (Herbicidal rate of 90% or more (almost completely withered)) | 5 (Herbicidal rate of 90% or more (almost completely withered)) | 4 (Herbicidal rate of 70% or more and less than 90%) | 4 (Herbicidal rate of 70% or more and less than 90%) | 0 (Herbicidal rate of 5% or less (almost no effect)) | 3 (Herbicidal rate of 40% or more and less than 70%) | 4 (Herbicidal rate of 70% or more and less than 90%) | 0 (Herbicidal rate of 5% or less (almost no effect)) | 0 (Herbicidal rate of 5% or less (almost no effect)) | 4 (Herbicidal rate of 70% or more and less than 90%) | – |
| Cc1nn(C)c(=O)c(-c2c(-c3ccccc3OC(F)(F)F)sc3c(Cl)cccc23)c1O [4-076] | 3 (Herbicidal rate of 40% or more and less than 70%) | 0 (Herbicidal rate of 5% or less (almost no effect)) | 3 (Herbicidal rate of 40% or more and less than 70%) | 0 (Herbicidal rate of 5% or less (almost no effect)) | 4 (Herbicidal rate of 70% or more and less than 90%) | 3 (Herbicidal rate of 40% or more and less than 70%) | 0 (Herbicidal rate of 5% or less (almost no effect)) | – | – | 1 (Herbicidal rate of 5% or more and less than 20%) | – | 2 (Herbicidal rate of 20% or more and less than 40%) | 2 (Herbicidal rate of 20% or more and less than 40%) | – | 0 (Herbicidal rate of 5% or less (almost no effect)) | 0 (Herbicidal rate of 5% or less (almost no effect)) | – | Herbicidal effect by foliage application, P: chickweed (chickweed [5]; [11]): 5 (Herbicidal rate of 90% or more (almost completely withered)); Herbicidal effect by foliage application, N: redroot pigweed (redroot pigweed [6]; [11]): 5 (Herbicidal rate of 90% or more (almost completely withered)); Herbicidal effect by foliage application, H: barnyard grass (barnyard grass; [11]): 3 (Herbicidal rate of 40% or more and less than 70%); Herbicidal effect by foliage application, J: blackgrass (blackgrass [9]; [11]): 0 (Herbicidal rate of 5% or less (almost no effect)); Herbicidal effect by foliage application, I: wild oat (wild oat [10]; [11]): 0 (Herbicidal rate of 5% or less (almost no effect)) |
